Patent publication US20230111910A1, “PD-1/PD-L1 INHIBITOR, PREPARATION METHOD THEREFOR, AND USE THEREOF” (SHANGHAI SYNERGY PHARMACEUTICAL SCIENCES CO., LTD., priority 2020, published 2023)
Like-named read-outs stand apart in the source and are kept apart here.

Columns and labels:
Assay type in all cases: in vivo
[1] = Acute toxicity test in mice, single dose, 14 days observation; settings: both sexes, mouse, in vivo; ICR mice, single administration; read-out: median lethal dose (LD50)
Method: (§1) This experiment aims to test the toxic effects of the compounds in mice.
(§2) ICR mice, SPF grade, 6-8 weeks old, half male and half […], purchased from Sippe-Bk Lab Animal Co., Ltd., Shanghai, license number SCXK (Shanghai) 2018-0006, animal certificate number: 20180006010983.
(§3) ICR mice were administered different doses of compounds at a single time, and were continuously observed for 14 days. The animal death, poisoning reaction, body weight change, diet, appearance, behavior, etc. were recorded. At the end point, the animals were dissected, and the organs were taken for histopathological examination.

ICR mice = assay: as above; settings: within 14 days from administration
Method: as §1, §2, §3

[2] = Pharmacokinetic experiment in rats, LC/MS/MS; settings: male, rat, whole blood, SD rats; for AUC: read-out: Area under the curve (AUC, ng/mL.h); for half-life: read-out: Half life (T1/2, h) (converted); for bioavailability: p.o. 10 mg/kg vs i.v. 2 mg/kg, read-out: Bioavailability (F%); for Cmax: read-out: Blood concentration (Cmax, ng/mL)
Method: Taking SD rats as an example, the drug concentrations in the plasma of rats at different times after i.g. and i.v. administration of compounds of Examples 1, 5, 6, 8, 12, 13, 15, 18, 19, 22, 25, 27 and 29, respectively, were determined by the liquid chromatography-tandem mass spectrometry (LS/MS/MS) method, and the relevant pharmacokinetic parameters were calculated to evaluate the pharmacokinetic properties of example compounds of the present invention in rats.
Healthy adult SD rats, SPF grade, male, purchased from Sippe-Bk Lab Animal Co., Ltd., Shanghai, license number SCXK (Shanghai) 2018-0006, animal certificate number: 20180006006321.
A certain amount of compound was weighed, dissolved in 5% dimethyl sulfoxide (DMSO), subjected to vortex and sonication, added with 0.5% sodium carboxymethyl cellulose (CMC-Na), and sonicated, to prepare a homogeneous solution.
Before administration and 5 min, 15 min, 0.5 h, 1 h, 2 h, 4 h, 6 h, 8 h and 24 h after administration, orbital blood was collected, 0.2 milliliters (mL) of blood being collected each time, and placed in an anticoagulant tube, mixed well, and stored in a −20° C. refrigerator for later use.
The content of the compound in rat whole blood was determined by liquid chromatography-tandem mass spectrometry (LS/MS/MS).
The pharmacokinetic parameters of the compounds after administration were calculated using the non-compartmental model of WinNonLin5.3 software.

SMILES | LD50 at 14 days [1] [mg/kg] | body weight and behavior compared with control group (ICR mice) | AUC ([2]; iv, i.v., 2 mg/kg) [ng·h/mL] | half-life ([2]; iv, i.v., 2 mg/kg) [h] | bioavailability ([2]; po) [%] | AUC ([2]; po, p.o. (i.g.), 10 mg/kg) [ng·h/mL] | Cmax ([2]; po, p.o. (i.g.), 10 mg/kg) [ng/mL]
Cc1c(NC(=O)c2nc3c(n2C)CCN(C[C@H](C)O)C3)cncc1-c1cccc(NC(=O)c2nc3c(n2C)CCN(C(C)C)C3)c1Cl [Example 24, (S)—N-(2-chloro-3-(5-(5-(2-hydroxypropyl)-1-methyl-4,5,6,7-tetrahydro-1H-imidazo[4,5-c]pyridine-2-carboxamido)-4-methylpyridin-3-yl)phenyl)-5-isopropyl-1-methyl-4,5,6,7-tetrahydro-1H-imidazo[4,5-c]pyridine-2-carboxamide] | > 1000 | no abnormal body weight or behavior | – | – | – | – | –
Cc1c(NC(=O)c2nc3c(n2C)CCN(C)C3)cncc1-c1cccc(-c2nc3cc(CN4CC[C@@H](C(=O)O)C4)cc(Cl)c3o2)c1C [Example 21] | > 1000 | no abnormal body weight or behavior | – | – | – | – | –
Cc1c(NC(=O)c2nc3c(n2C)CCN(C[C@H](C)O)C3)cncc1-c1cccc(NC(=O)c2nc3c(n2C)CCN(C[C@H](C)O)C3)c1Cl [Example 26, N-(5-(2-chloro-3-(5-((S)-2-hydroxypropyl)-1-methyl-4,5,6,7-tetrahydro-1H-imidazo[4,5-c]pyridine-2-carboxamido)phenyl)-4-methylpyridin-3-yl)-5-((S)-2-hydroxypropyl)-1-methyl-4,5,6,7-tetrahydro-1H-imidazo[4,5-c]pyridine-2-carboxamide] | > 1000 | no abnormal body weight or behavior | – | – | – | – | –
Cc1c(NC(=O)c2nc(CNCCO)cs2)cccc1-c1cccc(NC(=O)c2ccc(CNCCO)cn2)c1Cl [Example 2] | > 1000 | no abnormal body weight or behavior | – | – | – | – | –
Cc1c(NC(=O)c2nc3c(n2C)CCNC3)cccc1-c1cncc(-c2nc3cc(CN4CC[C@@H](C(=O)O)C4)cc(Cl)c3o2)c1C [Example 19, (R)-1-(((7-chloro-2-(4-methyl-5-(2-methyl-3-(1-methyl-4,5,6,7-tetrahydro-1H-imidazole)[4,5-c]pyridine-2-carboxamido)phenyl)pyridin-3-yl)benzo[d]oxazol-5-yl)methyl)pyrrolidine-3-carboxylic acid] | > 1000 | no abnormal body weight or behavior | 560 | 2.21 | 65 | 1820 | 407
Cc1c(NC(=O)c2nc3c(n2C)CCN(C)C3)cccc1-c1cncc(-c2nc3cc(CN4CC[C@@H](C(=O)O)C4)cc(Cl)c3o2)c1C [Example 13] | > 1000 | no abnormal body weight or behavior | 630 | 1.43 | 54 | 1700 | 431
Cc1c(NC(=O)c2nc3c(s2)CN(C)CC3)cncc1-c1cccc(NC(=O)c2nc3c(n2C)CCN(C)C3)c1C [Example 5, N-(5-(3-(1,5-dimethyl-4,5,6,7-tetrahydro-1H-imidazo[4,5-c]pyridine-2-carboxamido)-2-methylphenyl)-4-methylpyridin-3-yl)-5-methyl-4,5,6,7-tetrahydrothiazolo[5,4-c]pyridine-2-carboxamide] | – | – | 612 | 2.5 | 68 | 2080 | 432
Cc1c(NC(=O)c2nc3c(n2C)CCN(C[C@H](C)O)C3)cccc1-c1cncc(-c2nc3cc(CN4CC[C@@H](C(=O)O)C4)cc(Cl)c3o2)c1C [Example 12] | – | – | 586 | – | 60 | 1760 | 442
